Measurements published in the NIST ThermoML archive (doi:10.1016/j.fluid.2008.03.004).
Numbers after ± are expanded uncertainties.

Assay: xn = mol fraction of the nth substance listed
Settings: 101 kPa, Liquid; for speed of sound: Sing-around technique in a fixed-path interferometer

## Cc1cccc(C)c1 [1,3-dimethylbenzene] + COC(C)(C)C
288.15 K, x2 = 0
  speed of sound: 1362.7 ± 2.2 m/s
  mass density: 868.459 ± 0.37 kg/m3
288.15 K, x2 = 0.047
  speed of sound: 1350.6 ± 2.2 m/s
  mass density: 863.235 ± 0.39 kg/m3
288.15 K, x2 = 0.115
  speed of sound: 1332.6 ± 2.2 m/s
  mass density: 855.522 ± 0.4 kg/m3
288.15 K, x2 = 0.212
  speed of sound: 1306.8 ± 2.2 m/s
  mass density: 844.315 ± 0.42 kg/m3
288.15 K, x2 = 0.304
  speed of sound: 1282.4 ± 2.2 m/s
  mass density: 833.627 ± 0.44 kg/m3
288.15 K, x2 = 0.399
  speed of sound: 1256.5 ± 2.2 m/s
  mass density: 822.223 ± 0.45 kg/m3
288.15 K, x2 = 0.5
  speed of sound: 1228.3 ± 2.2 m/s
  mass density: 809.928 ± 0.47 kg/m3
288.15 K, x2 = 0.601
  speed of sound: 1200.9 ± 2.2 m/s
  mass density: 797.423 ± 0.49 kg/m3
288.15 K, x2 = 0.651
  speed of sound: 1185.3 ± 2.2 m/s
  mass density: 791.063 ± 0.5 kg/m3
288.15 K, x2 = 0.794
  speed of sound: 1143.4 ± 2.2 m/s
  mass density: 772.47 ± 0.53 kg/m3
288.15 K, x2 = 0.898
  speed of sound: 1113.2 ± 2.2 m/s
  mass density: 758.81 ± 0.55 kg/m3
288.15 K, x2 = 0.954
  speed of sound: 1097.5 ± 2.2 m/s
  mass density: 751.317 ± 0.56 kg/m3
290.65 K, x2 = 0
  speed of sound: 1352.1 ± 2.2 m/s
  mass density: 866.318 ± 0.37 kg/m3
290.65 K, x2 = 0.047
  speed of sound: 1340.1 ± 2.2 m/s
  mass density: 861.081 ± 0.4 kg/m3
290.65 K, x2 = 0.115
  speed of sound: 1322.5 ± 2.2 m/s
  mass density: 853.297 ± 0.41 kg/m3
290.65 K, x2 = 0.212
  speed of sound: 1296.1 ± 2.2 m/s
  mass density: 842.102 ± 0.42 kg/m3
290.65 K, x2 = 0.304
  speed of sound: 1271.5 ± 2.2 m/s
  mass density: 831.375 ± 0.44 kg/m3
290.65 K, x2 = 0.399
  speed of sound: 1245.6 ± 2.2 m/s
  mass density: 819.939 ± 0.46 kg/m3
290.65 K, x2 = 0.5
  speed of sound: 1217.4 ± 2.2 m/s
  mass density: 807.6 ± 0.47 kg/m3
290.65 K, x2 = 0.601
  speed of sound: 1189.7 ± 2.2 m/s
  mass density: 795.051 ± 0.49 kg/m3
290.65 K, x2 = 0.651
  speed of sound: 1173.8 ± 2.2 m/s
  mass density: 788.663 ± 0.5 kg/m3
290.65 K, x2 = 0.794
  speed of sound: 1132 ± 2.2 m/s
  mass density: 769.999 ± 0.53 kg/m3
290.65 K, x2 = 0.898
  speed of sound: 1101.5 ± 2.2 m/s
  mass density: 756.279 ± 0.55 kg/m3
290.65 K, x2 = 0.954
  speed of sound: 1085.7 ± 2.2 m/s
  mass density: 748.754 ± 0.56 kg/m3
293.15 K, x2 = 0
  speed of sound: 1341.7 ± 2.2 m/s
  mass density: 864.177 ± 0.38 kg/m3
293.15 K, x2 = 0.047
  speed of sound: 1329.7 ± 2.2 m/s
  mass density: 858.922 ± 0.4 kg/m3
293.15 K, x2 = 0.115
  speed of sound: 1312 ± 2.2 m/s
  mass density: 851.118 ± 0.41 kg/m3
293.15 K, x2 = 0.212
  speed of sound: 1285.5 ± 2.2 m/s
  mass density: 839.887 ± 0.43 kg/m3
293.15 K, x2 = 0.304
  speed of sound: 1260.8 ± 2.2 m/s
  mass density: 829.126 ± 0.44 kg/m3
293.15 K, x2 = 0.399
  speed of sound: 1234.7 ± 2.2 m/s
  mass density: 817.65 ± 0.46 kg/m3
293.15 K, x2 = 0.5
  speed of sound: 1206.5 ± 2.2 m/s
  mass density: 805.27 ± 0.48 kg/m3
293.15 K, x2 = 0.601
  speed of sound: 1178.5 ± 2.2 m/s
  mass density: 792.671 ± 0.5 kg/m3
293.15 K, x2 = 0.651
  speed of sound: 1162.6 ± 2.2 m/s
  mass density: 786.26 ± 0.51 kg/m3
293.15 K, x2 = 0.794
  speed of sound: 1120.7 ± 2.2 m/s
  mass density: 767.519 ± 0.54 kg/m3
293.15 K, x2 = 0.898
  speed of sound: 1090 ± 2.2 m/s
  mass density: 753.738 ± 0.56 kg/m3
293.15 K, x2 = 0.954
  speed of sound: 1074.1 ± 2.2 m/s
  mass density: 746.179 ± 0.57 kg/m3
295.65 K, x2 = 0
  speed of sound: 1331.3 ± 2.2 m/s
  mass density: 862.035 ± 0.38 kg/m3
295.65 K, x2 = 0.047
  speed of sound: 1319 ± 2.2 m/s
  mass density: 856.763 ± 0.4 kg/m3
295.65 K, x2 = 0.115
  speed of sound: 1301.5 ± 2.2 m/s
  mass density: 848.935 ± 0.41 kg/m3
295.65 K, x2 = 0.212
  speed of sound: 1274.9 ± 2.2 m/s
  mass density: 837.67 ± 0.43 kg/m3
295.65 K, x2 = 0.304
  speed of sound: 1250.1 ± 2.2 m/s
  mass density: 826.872 ± 0.45 kg/m3
295.65 K, x2 = 0.399
  speed of sound: 1223.9 ± 2.2 m/s
  mass density: 815.358 ± 0.46 kg/m3
295.65 K, x2 = 0.5
  speed of sound: 1195.6 ± 2.2 m/s
  mass density: 802.93 ± 0.48 kg/m3
295.65 K, x2 = 0.601
  speed of sound: 1167.3 ± 2.2 m/s
  mass density: 790.285 ± 0.5 kg/m3
295.65 K, x2 = 0.651
  speed of sound: 1151.5 ± 2.2 m/s
  mass density: 783.85 ± 0.51 kg/m3
295.65 K, x2 = 0.794
  speed of sound: 1109.4 ± 2.2 m/s
  mass density: 765.033 ± 0.54 kg/m3
295.65 K, x2 = 0.898
  speed of sound: 1078.5 ± 2.2 m/s
  mass density: 751.19 ± 0.56 kg/m3
295.65 K, x2 = 0.954
  speed of sound: 1062.5 ± 2.2 m/s
  mass density: 743.594 ± 0.57 kg/m3
298.15 K, x2 = 0
  speed of sound: 1320.9 ± 2.2 m/s
  mass density: 859.89 ± 0.38 kg/m3
298.15 K, x2 = 0.047
  speed of sound: 1308.8 ± 2.2 m/s
  mass density: 854.604 ± 0.41 kg/m3
298.15 K, x2 = 0.115
  speed of sound: 1291 ± 2.2 m/s
  mass density: 846.749 ± 0.42 kg/m3
298.15 K, x2 = 0.212
  speed of sound: 1264.3 ± 2.2 m/s
  mass density: 835.447 ± 0.43 kg/m3
298.15 K, x2 = 0.304
  speed of sound: 1239.4 ± 2.2 m/s
  mass density: 824.615 ± 0.45 kg/m3
298.15 K, x2 = 0.399
  speed of sound: 1213.1 ± 2.2 m/s
  mass density: 813.059 ± 0.47 kg/m3
298.15 K, x2 = 0.5
  speed of sound: 1184.7 ± 2.2 m/s
  mass density: 800.588 ± 0.48 kg/m3
298.15 K, x2 = 0.601
  speed of sound: 1156 ± 2.2 m/s
  mass density: 787.899 ± 0.5 kg/m3
298.15 K, x2 = 0.651
  speed of sound: 1140.4 ± 2.2 m/s
  mass density: 781.433 ± 0.52 kg/m3
298.15 K, x2 = 0.794
  speed of sound: 1098.1 ± 2.2 m/s
  mass density: 762.537 ± 0.54 kg/m3
298.15 K, x2 = 0.898
  speed of sound: 1066.9 ± 2.2 m/s
  mass density: 748.629 ± 0.56 kg/m3
298.15 K, x2 = 0.954
  speed of sound: 1050.9 ± 2.2 m/s
  mass density: 740.997 ± 0.57 kg/m3
300.65 K, x2 = 0
  speed of sound: 1310.6 ± 2.2 m/s
  mass density: 857.742 ± 0.38 kg/m3
300.65 K, x2 = 0.047
  speed of sound: 1298.5 ± 2.2 m/s
  mass density: 852.439 ± 0.41 kg/m3
300.65 K, x2 = 0.115
  speed of sound: 1280.5 ± 2.2 m/s
  mass density: 844.562 ± 0.42 kg/m3
300.65 K, x2 = 0.212
  speed of sound: 1253.8 ± 2.2 m/s
  mass density: 833.221 ± 0.44 kg/m3
300.65 K, x2 = 0.304
  speed of sound: 1228.8 ± 2.2 m/s
  mass density: 822.354 ± 0.45 kg/m3
300.65 K, x2 = 0.399
  speed of sound: 1202.3 ± 2.2 m/s
  mass density: 810.758 ± 0.47 kg/m3
300.65 K, x2 = 0.5
  speed of sound: 1173.9 ± 2.2 m/s
  mass density: 798.24 ± 0.49 kg/m3
300.65 K, x2 = 0.601
  speed of sound: 1144.9 ± 2.2 m/s
  mass density: 785.504 ± 0.51 kg/m3
300.65 K, x2 = 0.651
  speed of sound: 1129.3 ± 2.2 m/s
  mass density: 779.011 ± 0.52 kg/m3
300.65 K, x2 = 0.794
  speed of sound: 1086.9 ± 2.2 m/s
  mass density: 760.033 ± 0.55 kg/m3
300.65 K, x2 = 0.898
  speed of sound: 1055.5 ± 2.2 m/s
  mass density: 746.061 ± 0.57 kg/m3
300.65 K, x2 = 0.954
  speed of sound: 1039.4 ± 2.2 m/s
  mass density: 738.393 ± 0.58 kg/m3
303.15 K, x2 = 0
  speed of sound: 1300.3 ± 2.2 m/s
  mass density: 855.593 ± 0.39 kg/m3
303.15 K, x2 = 0.047
  speed of sound: 1288.1 ± 2.2 m/s
  mass density: 850.273 ± 0.41 kg/m3
303.15 K, x2 = 0.115
  speed of sound: 1270 ± 2.2 m/s
  mass density: 842.425 ± 0.42 kg/m3
303.15 K, x2 = 0.212
  speed of sound: 1243.3 ± 2.2 m/s
  mass density: 830.994 ± 0.44 kg/m3
303.15 K, x2 = 0.304
  speed of sound: 1218.2 ± 2.2 m/s
  mass density: 820.086 ± 0.46 kg/m3
303.15 K, x2 = 0.399
  speed of sound: 1191.6 ± 2.2 m/s
  mass density: 808.453 ± 0.47 kg/m3
303.15 K, x2 = 0.5
  speed of sound: 1163.1 ± 2.2 m/s
  mass density: 795.888 ± 0.49 kg/m3
303.15 K, x2 = 0.601
  speed of sound: 1133.8 ± 2.2 m/s
  mass density: 783.103 ± 0.51 kg/m3
303.15 K, x2 = 0.651
  speed of sound: 1118.3 ± 2.2 m/s
  mass density: 776.58 ± 0.52 kg/m3
303.15 K, x2 = 0.794
  speed of sound: 1075.7 ± 2.2 m/s
  mass density: 757.521 ± 0.55 kg/m3
303.15 K, x2 = 0.898
  speed of sound: 1044 ± 2.2 m/s
  mass density: 743.481 ± 0.57 kg/m3
303.15 K, x2 = 0.954
  speed of sound: 1027.8 ± 2.2 m/s
  mass density: 735.774 ± 0.58 kg/m3
305.65 K, x2 = 0
  speed of sound: 1290 ± 2.2 m/s
305.65 K, x2 = 0.047
  speed of sound: 1277.8 ± 2.2 m/s
305.65 K, x2 = 0.115
  speed of sound: 1259.7 ± 2.2 m/s
305.65 K, x2 = 0.212
  speed of sound: 1232.9 ± 2.2 m/s
305.65 K, x2 = 0.304
  speed of sound: 1207.7 ± 2.2 m/s
305.65 K, x2 = 0.399
  speed of sound: 1180.9 ± 2.2 m/s
305.65 K, x2 = 0.5
  speed of sound: 1152.3 ± 2.2 m/s
305.65 K, x2 = 0.601
  speed of sound: 1122.8 ± 2.2 m/s
305.65 K, x2 = 0.651
  speed of sound: 1107.3 ± 2.2 m/s
305.65 K, x2 = 0.794
  speed of sound: 1064.7 ± 2.2 m/s
305.65 K, x2 = 0.898
  speed of sound: 1032.7 ± 2.2 m/s
305.65 K, x2 = 0.954
  speed of sound: 1016.3 ± 2.2 m/s
